Experimental data taken from patent US20170014407A1, “PYRIDAZINE DERIVATIVES FOR USE IN THE PREVENTON OR TREATMENT OF AN ATAXIC DISORDER” (TAKEDA PHARMACEUTICAL COMPANY LIMITED, priority 2014, published 2017).

Tests used:
[1] = test system: mice carrying inherited or chemically-induced ataxia mutations; details: Saigoh et al. 1998, cited from earlier work; for Concentration of endogenous D-serine in the cerebellum: ataxic mutant mice; for Effect on ataxia: mice carrying inherited or chemically-induced ataxia mutations
C57B16 mice = experiment: Delayed eyeblink conditioning test (dEBC); format: in vivo, mouse; details: Group E, scopolamine 0.3 mg/kg subcutaneous
Text: Three-month old, male C57B16 mice were implanted with recording electrodes in the orbicularis oculi muscle and with stimulating electrodes on the supraorbital nerve. For classical conditioning, animals were presented with a 350-ms tone as a conditioned stimulus (CS) at the end of which received an electrical pulse in the supraorbital nerve as unconditioned stimulus (US). Classical conditioning was achieved using a delay paradigm. For this, a tone (350 ms, 2 kHz, 85-90 dB) was presented as CS. The US consisted of a paired pulse with 1 millisecond of inter-pulse interval. Each pulse lasted for 0.1 millisecond. The US was presented at the end of the CS. A total of two habituation, ten conditioning, and five extinction sessions were carried out for each animal. Further details of this method can be found in the article by Gruart A., “Involvement of the CA3-CA1 synapse in the acquisition of associative learning in behaving mice”, J. Neurosci., 2006, 26, 1077-1087.
The effects on associative learning of a DAAO inhibitor compound of the invention were compared against different control and scopolamine-administered groups. Scopolamine is io a non-selective muscarinic receptor antagonist shown to consistently produce impairment of learning in rodents (see Klinkenberg, A., “The validity of scopolamine as a pharmacological model for cognitive impairment: A review of animal behavioral studies” Neuroscience and Biobehavioral Reviews, 2010, 34, 1307-1350.
is Nine groups, each containing 15 mice except for the untreated control group which contained 14 mice, were tested:
Group A was orally administered with Vehicle 1 (an aqueous solution of 0.5% methyl cellulose);
Group B was orally administered with a solution of a DAAO inhibitor of formula (I) in Vehicle 1 at a dose of 0.1 mg/kg (Solution 1);
Group C was orally administered with a solution of a DAAO inhibitor of formula (I) (the same one as for Group B) in Vehicle 1 at a dose of 1.0 mg/kg (Solution 2);
Group D was administered subcutaneously with Vehicle 2 (distilled water);
Group E was administered subcutaneously with a solution of scopolamine in Vehicle 2 at a dose of 0.3 mg/kg (Solution 3);
Group F was administered orally with Solution 1 and subcutaneously with Solution 3;
Group G was administered orally with Solution 2 and subcutaneously with Solution 3;
Group H was administered orally with Vehicle 1 and subcutaneously with Vehicle 2;
Group I was the untreated control group.

| Structure (SMILES) | Concentration of endogenous D-serine in the cerebellum [1] | Effect on ataxia [1] | Mean Percentage of Conditioned Responses (%) (C57B16 mice; conditioning session 1) | Mean Percentage of Conditioned Responses (%) (C57B16 mice; conditioning session 2) | Mean Percentage of Conditioned Responses (%) (C57B16 mice; conditioning session 3) | Mean Percentage of Conditioned Responses (%) (C57B16 mice; conditioning session 4) | Mean Percentage of Conditioned Responses (%) (C57B16 mice; conditioning session 5) | Mean Percentage of Conditioned Responses (%) (C57B16 mice; conditioning session 6) | Mean Percentage of Conditioned Responses (%) (C57B16 mice; conditioning session 7) | Mean Percentage of Conditioned Responses (%) (C57B16 mice; conditioning session 8) | Mean Percentage of Conditioned Responses (%) (C57B16 mice; conditioning session 9) | Mean Percentage of Conditioned Responses (%) (C57B16 mice; conditioning session 10) | Mean Percentage of Conditioned Responses (%) (C57B16 mice; extinction session 1) | Mean Percentage of Conditioned Responses (%) (C57B16 mice; extinction session 2) | Mean Percentage of Conditioned Responses (%) (C57B16 mice; extinction session 3) | Mean Percentage of Conditioned Responses (%) (C57B16 mice; extinction session 4) | Mean Percentage of Conditioned Responses (%) (C57B16 mice; extinction session 5) | Mean Percentage of Conditioned Responses (%) (C57B16 mice; habituation session 1) | Mean Percentage of Conditioned Responses (%) (C57B16 mice; habituation session 2) |
| --- | --- | --- | --- | --- | --- | --- | --- | --- | --- | --- | --- | --- | --- | --- | --- | --- | --- | --- | --- |
| N[C@@H]1CONC1=O [D-cycloserine] | increase in the concentration of endogenous D-serine in the cerebellum | ameliorating effect on ataxia | – | – | – | – | – | – | – | – | – | – | – | – | – | – | – | – | – |
| CN1[C@@H]2C[C@@H](OC(=O)[C@H](CO)c3ccccc3)C[C@H]1[C@@H]1O[C@@H]12 [scopolamine] | – | – | 37.67 | 40.33 | 43.78 | 43.33 | 45.67 | 45.98 | 48.78 | 51.56 | 51.33 | 52.56 | 51.22 | 45.78 | 43.78 | 42.00 | 43.22 | 26.44 | 27.44 |
| CCOC(=O)[C@H](N)CO [D-serine ethylester] | increase in the concentration of endogenous D-serine in the cerebellum | ameliorating effect on ataxia | – | – | – | – | – | – | – | – | – | – | – | – | – | – | – | – | – |
